# Experimental data: ChEMBL document CHEMBL1201862, “PubChem BioAssay data set” (2004)
# Several values for one entry are separate records, joined by “and”; a condition that tells them apart may be missing. Equal entries are not always repeated.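 How tested: cells in 96-well plates exposed to compound for 48 hours at five concentrations. Abbreviation: GI50, concentration required for 50% inhibition of growth.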 Activity calls are given as the source filed them. Cut-off read from the data, not from the text of the source: active = GI50 up to about 1.1 µM and inactive = higher.
# Tests used:
# Test in all cases: inhibition of tumour cell growth, NCI panel, 48 h
# [1] = test system: A498
# [2] = test system: EKVX
# [3] = test system: NCI-H23
# [4] = test system: SN12C
# [5] = test system: UO-31
# [6] = test system: SK-MEL-28
# [7] = test system: CAKI-1
# [8] = test system: COLO 205
# [9] = test system: DU-145
# [10] = test system: IGROV-1
# [11] = test system: 786-0
# [12] = test system: LOX IMVI
# [13] = test system: T47D
# [14] = test system: RPMI-8226
# [15] = test system: UACC-257
# [16] = test system: CCRF-CEM
# [17] = test system: PC-3
# [18] = test system: HOP-62
# [19] = test system: MDA-MB-435
# [20] = test system: HCC 2998
SMILES,GI50 [1],GI50 [2],GI50 [3],GI50 [4],GI50 [5],GI50 [6],GI50 [7],GI50 [8],GI50 [9],GI50 [10],GI50 [11],GI50 [12],GI50 [13],GI50 [14],GI50 [15],GI50 [16],GI50 [17],GI50 [18],GI50 [19],GI50 [20]
Cc1ccc(N(C(=O)Nc2ccc(F)c(Cl)c2)C2=NCC(C)S2)cc1 (configuration not stated),34.3 µM (inactive),49.9 µM (inactive),28.6 µM (inactive),67 µM (inactive),> 100 µM (inactive),19.9 µM (inactive),22.2 µM (inactive),72.4 µM (inactive),> 100 µM (inactive),> 100 µM (inactive),57.8 µM (inactive),30.2 µM (inactive),33 µM (inactive),> 10 µM (inactive),53.2 µM (inactive),42.2 µM (inactive),46.7 µM (inactive),> 100 µM (inactive),–,–
CCOC(=O)NCC(=O)NCC(=O)NCC(N)=O,–,> 100 µM (inactive),> 100 µM (inactive),–,> 100 µM (inactive),> 100 µM (inactive),> 100 µM (inactive),> 100 µM (inactive),> 100 µM (inactive),> 100 µM (inactive),> 100 µM (inactive),–,> 100 µM (inactive),> 100 µM (inactive),> 100 µM (inactive),> 100 µM (inactive),> 100 µM (inactive),> 100 µM (inactive),> 100 µM (inactive),> 100 µM (inactive)
CCN(CC)CCC(=O)OC1C(C)=CC(C)C(=O)CC(C(C)CC2CCC(O)C(OC)C2)OC(=O)C2CCCCN2C(=O)C(=O)[C@@]2(O)OC(CCC2C)CC(OC)\C(C)=C/C=C/C=C/C(C)CC(C)C(=O)C1OC (some centres not stated),< 0.01 µM (active),< 0.01 µM (active),11.7 µM (inactive),6.37 µM (inactive),< 0.01 µM (active),0.0791 µM (active),0.975 µM (active),12.1 µM (inactive),–,< 0.01 µM (active),7.91 µM (inactive),< 0.01 µM (active),< 0.01 µM (active),0.415 µM (active),13.3 µM (inactive),–,< 0.01 µM (active),< 0.01 µM (active),4.57 µM (inactive),1.87 µM (inactive)
Cc1nc(N)sc1/N=N/c1cc(Cl)c([N+](=O)[O-])cc1Cl,–,13 µM (inactive),–,17.6 µM (inactive),24.9 µM (inactive),10.7 µM (inactive),27.4 µM (inactive),31 µM (inactive),13.6 µM (inactive),20.1 µM (inactive),19.7 µM (inactive),16.9 µM (inactive),35.9 µM (inactive),2.29 µM (inactive),16.7 µM (inactive),11.8 µM (inactive),18.7 µM (inactive),33.7 µM (inactive),19.4 µM (inactive),–
CC1CN=C(Nc2ccc(S(N)(=O)=O)cc2)S1 (configuration not stated),> 100 µM (inactive),> 100 µM (inactive),> 100 µM (inactive),> 100 µM (inactive),39.4 µM (inactive),> 100 µM (inactive),> 100 µM (inactive),> 100 µM (inactive),> 100 µM (inactive),> 100 µM (inactive),> 100 µM (inactive),> 10 µM (inactive),60.1 µM (inactive),> 100 µM (inactive),> 100 µM (inactive),> 100 µM (inactive),> 10 µM (inactive),> 100 µM (inactive),–,> 100 µM (inactive)
Cc1nc2sc3ccccc3n2c(=O)c1/N=N/c1ccc(Cl)cc1,–,> 100 µM (inactive),> 100 µM (inactive),> 100 µM (inactive),–,> 100 µM (inactive),> 100 µM (inactive),> 100 µM (inactive),> 100 µM (inactive),> 100 µM (inactive),> 100 µM (inactive),> 100 µM (inactive),> 100 µM (inactive),> 100 µM (inactive),> 100 µM (inactive),> 100 µM (inactive),> 100 µM (inactive),> 100 µM (inactive),> 100 µM (inactive),–
CC1(C)CC(=O)c2c(nc(SSc3nc4c(c(-c5ccccc5)c3C#N)C(=O)CC(C)(C)C4)c(C#N)c2-c2ccccc2)C1,> 10 µM (inactive),> 10 µM (inactive),> 10 µM (inactive),> 10 µM (inactive),> 10 µM (inactive),> 10 µM (inactive),> 10 µM (inactive),> 10 µM (inactive),> 10 µM (inactive),> 10 µM (inactive),> 10 µM (inactive),> 10 µM (inactive),> 10 µM (inactive),> 10 µM (inactive),> 10 µM (inactive),> 10 µM (inactive),> 10 µM (inactive),> 10 µM (inactive),–,> 10 µM (inactive)
COc1cc2c(cc1OC)C(=O)/C(=C/c1ccc([N+](=O)[O-])cc1)CC2,–,> 10 µM (inactive),> 10 µM (inactive),> 10 µM (inactive),–,> 10 µM (inactive),> 10 µM (inactive),> 10 µM (inactive),> 10 µM (inactive),> 10 µM (inactive),> 10 µM (inactive),> 10 µM (inactive),> 10 µM (inactive),> 10 µM (inactive),> 10 µM (inactive),> 10 µM (inactive),> 10 µM (inactive),> 10 µM (inactive),> 10 µM (inactive),> 10 µM (inactive)
CCOC(=O)Cc1ccc(Nc2nc3cc(F)c(F)cc3nc2C(=O)OCC)cc1,–,22.8 µM (inactive),26 µM (inactive),74.5 µM (inactive),1.52 µM (inactive),64 µM (inactive),19.1 µM (inactive),37.2 µM (inactive),25.9 µM (inactive),28.7 µM (inactive),> 100 µM (inactive),28.1 µM (inactive),35.1 µM (inactive),39.1 µM (inactive),44.2 µM (inactive),42.8 µM (inactive),49.5 µM (inactive),> 100 µM (inactive),65.6 µM (inactive),25.6 µM (inactive)
Cc1cc2[nH]c3c(C#N)c(-c4ccccc4)c(CN4CCOCC4)c(=O)n3c2cc1C,> 100 µM (inactive),> 100 µM (inactive),> 100 µM (inactive),> 100 µM (inactive),> 100 µM (inactive),> 100 µM (inactive),> 100 µM (inactive),> 100 µM (inactive),–,–,> 100 µM (inactive),> 100 µM (inactive),> 100 µM (inactive),> 100 µM (inactive),> 100 µM (inactive),> 100 µM (inactive),> 100 µM (inactive),> 100 µM (inactive),> 100 µM (inactive),> 100 µM (inactive)
COc1cc(C2c3cc4c(cc3[C@@H](Nc3ccc([N+](=O)[O-])cc3)C3COC(=O)[C@H]23)OCO4)cc(OC)c1O (some centres not stated),0.676 µM (active),3.37 µM (inactive),0.569 µM (active),0.853 µM (active),1.52 µM (inactive),3.84 µM (inactive),0.438 µM (active),3.79 µM (inactive),0.362 µM (active),4.72 µM (inactive),0.652 µM (active),0.459 µM (active),–,0.525 µM (active),4.65 µM (inactive),0.198 µM (active),2.16 µM (inactive),0.321 µM (active),6.11 µM (inactive),2.99 µM (inactive)
N#Cc1c(-c2ccccc2)c(C#N)c(=S)n(C2OC(CO)C(O)C(O)C2O)c1N (configuration not stated),38.7 µM (inactive) and 44.2 µM (inactive),–,> 100 µM (inactive),> 100 µM (inactive),–,> 100 µM (inactive),92.7 µM (inactive),–,> 100 µM (inactive),–,> 100 µM (inactive),86.9 µM (inactive),52.6 µM (inactive) and 68.5 µM (inactive),> 100 µM (inactive) and 75.5 µM (inactive),> 100 µM (inactive),> 100 µM (inactive) and 50.9 µM (inactive),> 100 µM (inactive),–,–,> 100 µM (inactive) and 96.4 µM (inactive)
C=CCCCN(C(=O)c1ccccc1)c1ccc(C(=O)OC)o1,> 100 µM (inactive),> 100 µM (inactive),> 100 µM (inactive),> 100 µM (inactive),> 100 µM (inactive),–,> 100 µM (inactive),81.1 µM (inactive),> 100 µM (inactive),> 100 µM (inactive),> 100 µM (inactive),> 100 µM (inactive),34 µM (inactive),–,> 100 µM (inactive),–,83.8 µM (inactive),> 100 µM (inactive),–,–
CSc1nc(Cl)c2c(n1)Sc1nc3cc4c(cc3n1C2O)OCO4 (configuration not stated),3.44 µM (inactive),5.75 µM (inactive),0.891 µM (active),0.578 µM (active),0.46 µM (active),0.895 µM (active),2.95 µM (inactive),0.247 µM (active),0.318 µM (active),0.392 µM (active),0.321 µM (active),0.206 µM (active),–,0.385 µM (active),> 58.7 µM (inactive),0.269 µM (active),0.306 µM (active),0.701 µM (active),0.232 µM (active),1.66 µM (inactive)
Cc1ccc(S(=O)(=O)NC(=O)NC(CO)C(=O)O)cc1 (configuration not stated),–,–,> 100 µM (inactive),> 100 µM (inactive),> 100 µM (inactive),> 100 µM (inactive),–,> 100 µM (inactive),> 100 µM (inactive),> 100 µM (inactive),> 100 µM (inactive),> 100 µM (inactive),> 100 µM (inactive),> 100 µM (inactive),> 100 µM (inactive),> 100 µM (inactive),> 100 µM (inactive),> 100 µM (inactive),–,–
